# Laboratory results taken from US10238630B2, “Use of eribulin and poly (ADP ribose) polymerase (PARP) inhibitors as combination therapy for the treatment of cancer” (Eisai R&D Management Co., Ltd., priority 2014, dated 2019).
# Where a name gives a salt, the structure may show the parent alone.
# Assays:
# [1] = system: MDA-MB-436 human breast cancer xenografts; test: Antitumor activity against subcutaneous MDA-MB-436 human breast cancer xenografts in SCID mice (three studies); assay type: in vivo
# Protocol: MDA-MB-436 human triple negative breast cancer cells are BRCA1 mutant and PTEN null. Cells were maintained in monolayer cultures in RPMI-1640 growth medium supplemented with 10% fetal bovine serum at 37° C. in a 5% CO2 humidified incubator. On the day of inoculation, cells were harvested by trypsinization, washed, and resuspended in ice-cold PBS. Female immunodeficient SCID mice were inoculated subcutaneously near the right axillary area with MDA-MB-436 cells (5×10^6) in a 1:1 ratio (50 μL each) with Matrigel™ in a volume of 0.1 mL in phosphate buffered saline, using a 26-gauge needle. A total of 125 mice, approximately 6 weeks old were implanted with MDA-MB-436 cells.
# E7449, carboplatin and E7389 were evaluated as single agents and in combination for antitumor activity against MDA-MB-436 human breast cancer xenografts in SCID mice. Three separate studies were performed. The first experiment consisted of a vehicle control group, an E7449 single agent group, two groups treated with single agent E7389 and 2 combination drug-treated groups (Table 1). Thirty mice were inoculated with MDA-MB-436 cells and on Day 58 following implantation, tumor volumes were measured and mice were randomized into the 6 treatment groups based on tumor volume (average of 300 mm^3). Following randomization, drug treatment was initiated. Groups A to D were composed of 5 mice and groups E and F consisted of 4 mice for a total of 28 mice on the first day of treatment. E7449 was formulated in 0.5% methyl cellulose and orally administered once daily for 28 days (starting on Day 58) at 60 mg/kg based on body weight at 0.1 mL per 10 g. E7389 was formulated in saline and was intravenously administered once every 4 days, 4 times (Day 58, 62, 66, and 70) at a dosage of 0.4 or 1.6 mg/kg as single agent or in combination with E7449, based on body weight at 0.1 mL per 10 g. The control group was treated with oral vehicle (0.5% methyl cellulose in water) daily and intravenous vehicle (saline) once every 4 days, 4 times. E7449 or vehicle was administered first and when dosing of all animals was complete, E7389 was administered to animals receiving the combination.
# The second experiment consisted of a vehicle control group, an E7449 single agent group, 2 groups treated with single agent carboplatin, and 2 combination drug-treated groups (Table 2). Thirty-five mice were inoculated with MDA-MB-436 cells and on Day 57, following implantation, tumor volumes were measured and mice were randomized into 6 treatment groups based on tumor volume (average of 250 mm^3). Following randomization drug treatment was initiated. Groups A to D were composed of 5 mice and groups E and F consisted of 6 mice for a total of 32 mice on the first day of treatment. E7449, formulated in 0.5% methyl cellulose was orally administered daily for 28 days (starting on Day 57), at 60 mg/kg based on body weight at 0.1 mL per 10 g. Carboplatin was formulated in saline and was intravenously administered once on the first day of treatment (Day 57) at a dosage of 15 or 60 mg/kg as a single agent or in combination with E7449 based on body weight at 0.1 mL per 10 g. The control group was treated with oral vehicle (0.5% methyl cellulose in water) daily and intravenous vehicle (saline) once on Day 57. E7449 or vehicle was administered first, and when dosing of all animals was complete carboplatin was administered to animals receiving the combination.
# The third experiment consisted of a vehicle control group, 3 groups treated with single agent E7449, E7389, or carboplatin, 3 groups treated with double combinations of E7449+E7389, E7449+carboplatin, and E7389+carboplatin and a group treated with the three-drug combination (Table 3). Sixty mice were inoculated with MDA-MB-436 cells and on Day 41 following implantation, tumor volumes were measured and mice were randomized into 8 treatment groups based on tumor volume (average of 250 mm^3). Following randomization drug treatment was initiated.
# [2] = system: poly (ADP-ribose) (PAR) levels; test: Pharmacodynamic biomarker analysis of poly (ADP-ribose) (PAR) levels in triple negative breast cancer xenograft tumor lysates; assay type: in vivo
# Protocol: PAR levels rebounded at 24 hours in all models. […] In the HCC1806 (wild type for BRCA and PTEN) tumor lysate, E7389 treatment alone increased PAR at 24 and 48 hours.
Structure (SMILES),"antitumor effect (tumor volume) ([1]; E7449+E7389 study, E7389 0.4 mg/kg IV Q4Dx4, single agent)","antitumor effect (tumor volume) ([1]; E7449+E7389 study, E7389 1.6 mg/kg IV Q4Dx4, single agent)","antitumor effect (tumor volume), dose dependence ([1]; E7449+E7389 study, E7389 0.4 and 1.6 mg/kg IV Q4Dx4, single agent)","antitumor effect (tumor volume) ([1]; triple combination study, E7389 0.2 mg/kg IV Q4Dx4, single agent, 0.2 mg/kg)",PARP activity in tumor lysates ([2]; E7389 treatment alone),"PAR levels in tumor lysates ([2]; HCC1806 tumor lysate, E7389 alone, 24 and 48 hours)","antitumor effect (tumor volume) ([1]; E7449+E7389 study, E7449 60 mg/kg PO QDx28, single agent)","antitumor effect (tumor volume) ([1]; E7449+carboplatin study, E7449 60 mg/kg PO QDx28, single agent)","antitumor effect (tumor volume) ([1]; triple combination study, E7449 60 mg/kg PO QDx28, single agent)","PARP inhibition / PAR levels in tumor lysates ([2]; 6 hours, MDA-MB-436, MDA-MB-468, MDA-MB-231 and HCC1806 tumor lysates)","PAR levels in tumor lysates ([2]; 24 hours, all four models)"
"C=C1C[C@@H]2CC[C@@]34C[C@H]5OC6[C@@H](O[C@H]7CC[C@H](CC(=O)C[C@@H]8[C@@H](OC)[C@@H](C[C@H](O)CN)O[C@H]8C[C@H]8O[C@@H](CC[C@@H]1O2)C[C@@H](C)C8=C)O[C@@H]7[C@@H]6O3)[C@H]5O4 [E7389, 11, 15:18,21:24,28-triepoxy-7,9-ethano-12,15-methano-9H,15H-furo[3,2-i]furo[2′,3′:5,6]pyrano[4,3-b] [1,4]dioxacyclopentacosin-5(4H)-one, 2-[(2S)-3-amino-2-hydroxypropyl]hexacosahydro-3-methoxy-26-methyl-20,27-bis(methylene)-, (2R,3R,3aS,7R,8aS,9S,10aR,11S,12R,13aR,13bS,15S,18S,21S,24S,26R,28R,29aS)-methanesulfonate (salt)]",modest antitumor effect,tumor regression,Dose dependent antitumor activity,did not significantly inhibit tumor growth,did not inhibit PARP activity,increased PAR,–,–,–,–,–
O=c1[nH]nc2c3c(cccc13)N=C(CN1Cc3ccccc3C1)N2 [E7449],–,–,–,–,–,–,modest and statistically significant tumor growth inhibition,modest and statistically significant tumor growth inhibition,statistically significant tumor growth inhibition,complete PARP inhibition,rebounded
